Data published in ChEMBL document CHEMBL1157631, “Discovery and SAR of thiazolidine-2,4-dione analogues as insulin-like growth factor-1 receptor (IGF-1R) inhibitors via hierarchical virtual screening” (J Med Chem, 2010).
Activity calls are given as the source filed them. The rule behind the calls is not given here.

Legend:
Insulin receptor = Insulin receptor (Homo sapiens, UniProt P06213); assay: Inhibition of IR by ELISA
[1] = molecular target: Proto-oncogene tyrosine-protein kinase Src (Homo sapiens) (UniProt P12931); assay: Inhibition of c-Src at 10 uM
Proto-oncogene tyrosine-protein kinase Src (Homo sapiens), sequence (P12931 2-536 limits assumed): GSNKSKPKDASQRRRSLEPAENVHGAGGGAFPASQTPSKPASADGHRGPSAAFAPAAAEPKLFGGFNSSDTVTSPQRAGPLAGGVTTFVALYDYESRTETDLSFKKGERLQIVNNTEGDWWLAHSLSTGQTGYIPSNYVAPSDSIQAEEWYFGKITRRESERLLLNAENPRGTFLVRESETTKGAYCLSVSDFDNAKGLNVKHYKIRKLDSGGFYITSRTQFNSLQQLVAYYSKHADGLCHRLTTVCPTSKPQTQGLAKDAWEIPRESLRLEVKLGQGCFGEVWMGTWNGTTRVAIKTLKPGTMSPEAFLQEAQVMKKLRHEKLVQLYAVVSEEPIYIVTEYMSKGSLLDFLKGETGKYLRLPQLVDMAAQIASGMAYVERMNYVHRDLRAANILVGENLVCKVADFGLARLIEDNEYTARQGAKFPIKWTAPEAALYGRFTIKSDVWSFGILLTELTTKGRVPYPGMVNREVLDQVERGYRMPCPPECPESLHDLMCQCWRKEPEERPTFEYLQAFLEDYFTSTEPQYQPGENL

[2] = molecular target: Insulin-like growth factor 1 receptor (Homo sapiens, UniProt P08069); assay: Inhibition of IGF1R by ELISA
Insulin-like growth factor 1 receptor, sequence (P08069 31-736 limits assumed): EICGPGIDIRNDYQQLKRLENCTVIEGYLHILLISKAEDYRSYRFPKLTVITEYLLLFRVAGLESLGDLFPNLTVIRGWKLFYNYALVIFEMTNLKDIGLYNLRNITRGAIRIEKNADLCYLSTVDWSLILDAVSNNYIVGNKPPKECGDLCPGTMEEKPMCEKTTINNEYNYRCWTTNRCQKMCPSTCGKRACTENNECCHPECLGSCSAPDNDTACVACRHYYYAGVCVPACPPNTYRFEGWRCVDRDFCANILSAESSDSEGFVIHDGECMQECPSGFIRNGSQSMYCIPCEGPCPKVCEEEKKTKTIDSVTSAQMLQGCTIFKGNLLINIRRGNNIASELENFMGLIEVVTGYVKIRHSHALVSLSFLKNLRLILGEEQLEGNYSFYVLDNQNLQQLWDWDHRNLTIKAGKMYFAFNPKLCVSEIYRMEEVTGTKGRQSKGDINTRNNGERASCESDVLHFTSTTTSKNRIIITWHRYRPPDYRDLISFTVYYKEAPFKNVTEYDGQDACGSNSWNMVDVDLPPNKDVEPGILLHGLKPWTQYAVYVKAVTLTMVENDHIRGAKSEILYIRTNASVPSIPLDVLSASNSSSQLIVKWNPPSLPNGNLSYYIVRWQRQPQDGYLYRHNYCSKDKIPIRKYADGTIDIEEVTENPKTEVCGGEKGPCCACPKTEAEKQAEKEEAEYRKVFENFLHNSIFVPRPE
Insulin-like growth factor 1 receptor, sequence (P08069 741-1367 limits assumed): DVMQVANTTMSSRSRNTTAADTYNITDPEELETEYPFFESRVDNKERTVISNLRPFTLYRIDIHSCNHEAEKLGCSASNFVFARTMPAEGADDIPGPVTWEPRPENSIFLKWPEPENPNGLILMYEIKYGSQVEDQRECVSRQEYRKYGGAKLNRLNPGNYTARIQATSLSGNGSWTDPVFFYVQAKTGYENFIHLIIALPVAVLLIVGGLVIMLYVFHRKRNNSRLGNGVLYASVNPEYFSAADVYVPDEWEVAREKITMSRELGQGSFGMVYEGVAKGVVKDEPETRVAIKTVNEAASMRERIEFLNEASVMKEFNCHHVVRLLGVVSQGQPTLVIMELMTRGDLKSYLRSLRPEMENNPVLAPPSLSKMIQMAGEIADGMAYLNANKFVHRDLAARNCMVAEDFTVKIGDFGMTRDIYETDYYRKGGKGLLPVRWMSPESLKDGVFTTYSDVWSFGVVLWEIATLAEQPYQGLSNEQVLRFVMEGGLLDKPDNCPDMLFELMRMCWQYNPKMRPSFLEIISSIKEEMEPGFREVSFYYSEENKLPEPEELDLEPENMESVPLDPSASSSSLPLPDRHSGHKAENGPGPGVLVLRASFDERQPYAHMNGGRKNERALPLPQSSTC

[3] = Dissociation constant, pKa of the compound; format: physicochemical
MCF7 = assay: Antiproliferative activity against human MCF7 cells after 72 hrs by SRB assay; format: functional, cell-based; conditions: MCF7, 72 h

Insulin receptor, sequence (P06213 28-758 limits assumed): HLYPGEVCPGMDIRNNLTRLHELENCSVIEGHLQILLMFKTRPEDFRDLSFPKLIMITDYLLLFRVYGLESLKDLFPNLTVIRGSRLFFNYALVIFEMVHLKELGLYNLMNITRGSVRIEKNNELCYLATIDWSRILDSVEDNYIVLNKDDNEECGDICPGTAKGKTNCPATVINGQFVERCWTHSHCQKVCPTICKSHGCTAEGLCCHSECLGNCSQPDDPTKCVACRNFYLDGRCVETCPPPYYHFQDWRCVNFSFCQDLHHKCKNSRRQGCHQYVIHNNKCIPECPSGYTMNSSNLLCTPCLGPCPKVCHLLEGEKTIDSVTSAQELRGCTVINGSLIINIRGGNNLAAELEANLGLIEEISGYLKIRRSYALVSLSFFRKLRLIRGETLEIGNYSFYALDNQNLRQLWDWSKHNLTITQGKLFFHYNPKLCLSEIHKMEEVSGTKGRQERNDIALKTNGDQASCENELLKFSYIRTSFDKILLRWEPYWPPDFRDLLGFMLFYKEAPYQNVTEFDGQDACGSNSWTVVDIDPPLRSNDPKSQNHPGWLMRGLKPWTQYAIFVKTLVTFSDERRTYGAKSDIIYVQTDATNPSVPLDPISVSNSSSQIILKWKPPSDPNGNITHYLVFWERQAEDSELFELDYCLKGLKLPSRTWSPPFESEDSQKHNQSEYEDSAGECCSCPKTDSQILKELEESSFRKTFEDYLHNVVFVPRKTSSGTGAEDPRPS
Insulin receptor, sequence (P06213 763-1382 limits assumed): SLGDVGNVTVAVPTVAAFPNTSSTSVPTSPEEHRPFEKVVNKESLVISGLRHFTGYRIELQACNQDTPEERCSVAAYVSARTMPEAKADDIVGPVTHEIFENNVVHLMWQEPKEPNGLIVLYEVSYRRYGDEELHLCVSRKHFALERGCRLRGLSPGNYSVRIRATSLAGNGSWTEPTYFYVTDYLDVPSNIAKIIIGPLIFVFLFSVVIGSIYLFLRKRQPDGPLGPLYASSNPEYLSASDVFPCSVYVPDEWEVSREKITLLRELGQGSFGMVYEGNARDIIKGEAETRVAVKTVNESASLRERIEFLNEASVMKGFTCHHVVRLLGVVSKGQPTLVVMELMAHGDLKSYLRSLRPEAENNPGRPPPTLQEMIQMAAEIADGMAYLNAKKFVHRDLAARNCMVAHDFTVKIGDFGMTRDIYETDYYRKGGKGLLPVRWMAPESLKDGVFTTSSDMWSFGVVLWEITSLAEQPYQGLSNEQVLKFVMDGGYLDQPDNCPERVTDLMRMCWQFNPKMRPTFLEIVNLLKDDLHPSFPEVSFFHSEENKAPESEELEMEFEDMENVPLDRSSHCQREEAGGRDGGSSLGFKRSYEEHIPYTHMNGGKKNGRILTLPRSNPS

Row | IC50 (Insulin receptor) | Activity [1] | IC50 [2] | pKa [3] | IC50 (MCF7) | SMILES
1 | > 100 µM | Active | – | – | – | COc1cc(Br)cc(/C=C2\SC(=O)NC2=O)c1O
2 | – | – | > 100 µM | – | – | O=C1NC(=O)/C(=C\c2ccc(OCc3ccccc3Cl)cc2)S1
3 | – | – | – | 7.9 | 14.8 µM | O=C1NC(=O)/C(=C\c2ccc(-c3ccc(Cl)c(Cl)c3)o2)S1
4 | – | – | > 100 µM | – | – | COc1cc(/C=C2/SC(=O)NC2=O)ccc1OCc1ccccc1
5 | > 100 µM | – | 9 µM | – | > 100 µM | CCC(C)COc1ccccc1/C=C1/SC(=O)NC1=O (stereo not given)
6 | – | – | 49.8 µM | – | – | CCOc1cc(/C=C2/SC(=O)NC2=O)cc(Cl)c1OCC
7 | – | – | > 100 µM | – | – | CCCCOc1ccc(/C=C2\SC(=O)NC2=O)cc1
8 | > 100 µM | – | 6.3 µM | – | – | Cc1ccc(-c2ccc(/C=C3/SC(=O)NC3=O)o2)c(Br)c1
9 | – | – | > 100 µM | – | – | COc1cc(/C=C2\SC(=O)NC2=O)ccc1OCc1ccc(Cl)cc1Cl
10 | – | – | 0.319 µM | – | – | CCC(=O)c1cccc(Nc2ccc3c(c2)/C(=C/Nc2ccc(N4CCN(C)CC4)cc2)C(=O)NC3=O)c1
11 | > 100 µM | – | 5.3 µM | – | – | COc1cc(/C=C2/SC(=O)NC2=O)cc(OC)c1O
12 | > 100 µM | – | 5.2 µM | – | 56.3 µM | CCOc1cc(/C=C2/SC(=O)NC2=O)cc(Br)c1O
13 | – | – | 63.9 µM | – | – | CCOc1ccc(/C=C2\SC(=O)NC2=O)cc1OCC(C)C
14 | > 100 µM | – | 4.9 µM | – | 55.8 µM | O=C1NC(=O)/C(=C\c2cccc([N+](=O)[O-])c2)S1
15 | – | – | – | – | 81.3 µM | O=C1NC(=O)/C(=C/c2ccc(-c3ccc(O)c(C(=O)O)c3)o2)S1
16 | 28 µM | – | 0.057 µM | – | 25.3 µM | O=C1NC(=O)/C(=C\c2ccc(-c3cccc(Br)c3)o2)S1
17 | – | – | > 100 µM | – | – | CCOc1cc(/C=C2\SC(=O)NC2=O)c(Br)cc1OC
18 | – | – | – | – | 41.9 µM | O=C1NC(=S)S/C1=C\c1ccc(-c2ccc(C(=O)O)cc2)o1
19 | – | – | 0.009 µM | – | – | Cc1ccc(N2CCC(N3CCN(C(=O)N4CCOCC4)CC3)CC2)c2[nH]c(-c3c(N[C@@H](CO)Cc4ccccc4Br)cc[nH]c3=O)nc12
20 | 65.3 µM | – | 6.4 µM | – | – | COc1c(Br)cc(/C=C2\SC(=O)NC2=O)cc1Br
21 | > 100 µM | – | 6.7 µM | – | 47.3 µM | O=C1NC(=O)/C(=C\c2ccc(-c3ccc(Br)cc3)o2)S1

Row | IC50 (Insulin receptor) | Activity [1] | IC50 [2] | pKa [3] | IC50 (MCF7) | SMILES
22 | > 100 µM | – | 6.6 µM | – | > 100 µM | O=C1NC(=O)/C(=C/c2ccccc2F)S1
23 | > 100 µM | – | 1.6 µM | – | 25.2 µM | O=C1NC(=O)/C(=C/c2cccc(OCc3ccc(Cl)cc3Cl)c2)S1
24 | > 100 µM | – | 6.3 µM | – | 50.8 µM | COc1cc(/C=C2/SC(=O)NC2=O)cc(I)c1O
25 | > 100 µM | – | 3.3 µM | – | 24.8 µM | O=C1NC(=O)/C(=C\c2cc3c(cc2Br)OCO3)S1
26 | > 100 µM | – | – | – | – | CCOc1cc(Br)cc(/C=C2\SC(=O)NC2=O)c1O
27 | > 100 µM | – | 10 µM | – | > 100 µM | CCOc1cc2c(cc1/C=C1\SC(=O)NC1=O)OCO2
28 | > 100 µM | – | 0.28 µM | – | 16.9 µM | O=C1NC(=O)/C(=C\c2ccc(-c3ccc(F)c(Cl)c3)o2)S1
29 | > 100 µM | – | 11.1 µM | – | – | CCc1ccc(/C=C2\SC(=O)NC2=O)cc1
30 | > 100 µM | – | 0.4 µM | – | 36.9 µM | O=C1NC(=O)/C(=C\c2ccc(-c3ccc(F)cc3)o2)S1
31 | – | – | > 100 µM | – | – | CCCOc1c(Br)cc(/C=C2\SC(=O)NC2=O)cc1OCC
32 | – | – | > 100 µM | – | – | O=C1NC(=O)/C(=C\c2ccccc2OCc2ccc(Cl)cc2Cl)S1
33 | > 100 µM | – | – | – | 87.3 µM | CCOc1ccc(/C=C2/SC(=O)NC2=O)cc1OC
34 | – | – | – | – | 17.3 µM | O=C1NC(=O)/C(=C\c2ccc(-c3ccc(Cl)cc3Cl)o2)S1
35 | – | – | > 100 µM | – | – | C=CCc1cc(/C=C2\SC(=O)NC2=O)cc(OC)c1OC
36 | > 100 µM | – | 8.8 µM | – | 50.8 µM | O=C1NC(=O)/C(=C\c2ccc(Cl)c(Cl)c2)S1
37 | – | – | > 100 µM | – | – | O=C1NC(=O)/C(=C\c2ccc(N3CCCC3)c(F)c2)S1
38 | > 100 µM | – | 3.4 µM | – | 21.5 µM | O=C1NC(=O)/C(=C\c2ccc(-c3cccc(Cl)c3Cl)o2)S1
39 | > 100 µM | – | 15 µM | – | > 100 µM | O=C1NC(=O)/C(=C/c2ccc(Cl)cc2Cl)S1
40 | – | – | – | – | > 100 µM | O=C1NC(=S)S/C1=C\c1ccc(-c2ccccc2Cl)o1
41 | > 100 µM | – | 8.6 µM | – | > 100 µM | CCOc1cccc(/C=C2/SC(=O)NC2=O)c1O
